The subject of experiment [1] is HT-1197 cells. As to the kind of experiment: Cell-based assay: anti-proliferative activity, Cell Counting Kit-8, 72 hours (HT-1197, negative control without MELK expression). As to conditions: HT1197 cells, no MELK expression (negative control), Cell Counting Kit-8 at 72 hours. An outline of the steps: (§1)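 T47D, A549 and BT-549 cells, with MELK-negative HT-1197 as control (MELK status checked by western blot), seeded at 2,000–3,000 cells/well. Growth measured by CCK-8 72 hours after inhibitor exposure; IC50 values calculated.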
A general note: Tetrazolium dyes change colour on reduction, which living cells bring about.

Experiment [2] has as its system A549 cells. As to the kind of experiment: Cell-based assay: anti-proliferative activity, Cell Counting Kit-8, 72 hours (A549). As to conditions: MELK-expressing, Cell Counting Kit-8 at 72 hours. Put shortly: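 A549 cells seeded in 96-well plates and exposed to candidate inhibitors for 72 hours. Growth measured with Cell Counting Kit-8; IC50 values calculated from the dose response.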

Experiment [3] has as its system T47D cells. As to the kind of experiment: Cell-based assay: anti-proliferative activity, Cell Counting Kit-8, 72 hours (T47D). The settings on record: MELK-expressing, Cell Counting Kit-8 at 72 hours. Put shortly: as §1
The test system of experiment [4] is BT-549 cells. As to the kind of experiment: Cell-based assay: anti-proliferative activity, Cell Counting Kit-8, 72 hours (BT-549). As to conditions: BT549 cells, MELK-expressing, Cell Counting Kit-8 at 72 hours. Put shortly: as §1
The target of experiment [5] is MELK (Homo sapiens, UniProt Q14680). As to the kind of experiment: Kinase assay: MELK activity, phosphorylation of FITC-labeled histone H3 peptide measured by IMAP fluorescence polarization. The format is biochemical. The settings on record: 50 micro-M ATP, FITC-labeled histone H3 peptide substrate, IMAP fluorescence polarization, read-out: IC50 (μM) (kinase assay). An outline of the steps:
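A FITC-labelled histone H3 peptide served as substrate, with compounds serially diluted to 1% DMSO final. Reactions were stopped with three volumes of IMAP progressive binding solution. After 0.5 h at room temperature, fluorescence polarization was read.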
(In general: In fluorescence polarisation assays a small probe gives low polarisation when free and higher when bound to something large.)

Structures can show the parent of a compound that is named as a salt. Where two headings read alike, the source gives them in different places.

Chain of MELK (Q14680 whole entry, looked up): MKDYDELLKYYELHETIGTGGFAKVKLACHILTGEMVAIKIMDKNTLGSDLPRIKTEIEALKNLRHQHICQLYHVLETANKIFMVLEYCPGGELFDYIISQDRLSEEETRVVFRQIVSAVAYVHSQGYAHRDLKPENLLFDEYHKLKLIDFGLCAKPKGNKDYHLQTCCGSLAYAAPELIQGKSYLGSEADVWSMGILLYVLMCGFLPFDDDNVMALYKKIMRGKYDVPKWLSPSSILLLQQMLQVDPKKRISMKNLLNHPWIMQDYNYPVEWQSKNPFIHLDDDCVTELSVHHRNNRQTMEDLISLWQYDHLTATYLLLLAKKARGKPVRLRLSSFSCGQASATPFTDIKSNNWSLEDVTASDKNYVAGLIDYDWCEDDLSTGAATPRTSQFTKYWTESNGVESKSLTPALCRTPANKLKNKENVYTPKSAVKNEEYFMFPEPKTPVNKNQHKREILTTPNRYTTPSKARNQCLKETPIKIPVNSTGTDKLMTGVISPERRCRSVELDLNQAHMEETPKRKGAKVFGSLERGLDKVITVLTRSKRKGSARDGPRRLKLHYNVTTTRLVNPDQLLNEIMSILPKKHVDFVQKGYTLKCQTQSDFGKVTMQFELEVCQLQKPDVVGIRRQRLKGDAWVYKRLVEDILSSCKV

On to `CCN(CC)[C@H]1CC[C@H](Nc2c(C(=O)C3CC3)cnc3ccc(-c4cc(Cl)c(O)c(OC)c4)cc23)CC1` [Example 314, {6-(3-Chloro-4-hydroxy-5-methoxyphenyl)-4-[trans-4-(diethylamino)cyclohexylamino]quinolin-3-yl}(cyclopropyl)methanone], for which the half-maximal inhibitory concentration (IC50) in experiment [1] (Homo sapiens, HT1197, 72 h) worked out at 4.3 µM; in experiment [2] (Homo sapiens, A549, 72 h), 0.22 µM; in experiment [3] (Homo sapiens, T47D, 72 h), 0.16 µM; in experiment [4] (Homo sapiens, BT-549, 72 h), 0.73 µM; in experiment [5], 0.0031 µM.
With `CC(=O)c1cnc2ccc(-c3cc(F)c(O)c(Cl)c3)cc2c1N1CCC(CN2CCCC2)CC1` [Example 336, 1-{6-(3-Chloro-5-fluoro-4-hydroxyphenyl)-4-[4-(pyrrolidin-1-ylmethyl)piperidin-1-yl]quinolin-3-yl}ethanone], the IC50 in experiment [1] (Homo sapiens, HT1197, 72 h) came out at 5 µM; in experiment [2] (Homo sapiens, A549, 72 h), 0.8 µM; in experiment [3] (Homo sapiens, T47D, 72 h), 0.33 µM; in experiment [4] (Homo sapiens, BT-549, 72 h), 0.85 µM; in experiment [5], 0.0069 µM.
Regarding `CN(C)CC1CCN(c2c(C(=O)C3CC3)cnc3ccc(-c4cc(F)c(O)c(Cl)c4)cc23)CC1` [Example 347, [6-(3-Chloro-5-fluoro-4-hydroxyphenyl)-4-{4-[(dimethylamino)methyl]piperidin-1-yl}quinolin-3-yl](cyclopropyl)methanone], the IC50 in experiment [1] (Homo sapiens, HT1197, 72 h) stood at 1.8 µM; in experiment [2] (Homo sapiens, A549, 72 h), 0.48 µM; in experiment [3] (Homo sapiens, T47D, 72 h), 0.42 µM; in experiment [4] (Homo sapiens, BT-549, 72 h), 0.62 µM; in experiment [5], 0.0024 µM.
For `CC(C1CCN(c2c(C(=O)C3CC3)cnc3ccc(-c4cc(F)c(O)c(F)c4)cc23)CC1)N(C)C` (stereo not drawn) [Example 181, Cyclopropyl[6-(3,5-difluoro-4-hydroxyphenyl)-4-{4-[1-(dimethylamino)ethyl]piperidin-1-yl}quinolin-3-yl]methanone], the concentration for half-maximal inhibition (IC50) turned out to be 1.1 µM in experiment [1] (Homo sapiens, HT1197, 72 h); 0.7 µM in experiment [2] (Homo sapiens, A549, 72 h); 0.47 µM in experiment [3] (Homo sapiens, T47D, 72 h); 0.73 µM in experiment [4] (Homo sapiens, BT-549, 72 h); 0.011 µM in experiment [5].
Consider `CCN(CC)[C@H]1CC[C@@H](Nc2c(C(=O)C3CC3)cnc3ccc(-c4cc(Cl)c(O)c(OC)c4)cc23)CC1` [Example 311, {6-(3-Chloro-4-hydroxy-5-methoxyphenyl)-4-[cis-4-(diethylamino)cyclohexylamino]quinolin-3-yl}(cyclopropyl)methanone], for which the IC50 is 7.6 µM in experiment [1] (Homo sapiens, HT1197, 72 h); 0.21 µM in experiment [2] (Homo sapiens, A549, 72 h); 0.51 µM in experiment [3] (Homo sapiens, T47D, 72 h); 1.5 µM in experiment [4] (Homo sapiens, BT-549, 72 h); 0.0032 µM in experiment [5].
As to `N[C@H]1CC[C@H](Nc2c(C(=O)C3CC3)cnc3ccc(-c4cc(F)c(O)c(Cl)c4)cc23)CC1` [Example 179, {4-[trans-4-Aminocyclohexylamino]-6-(3-chloro-5-fluoro-4-hydroxyphenyl)quinolin-3-yl}(cyclopropyl)methanone], the IC50 in experiment [1] (Homo sapiens, HT1197, 72 h) amounted to 5.2 µM; in experiment [2] (Homo sapiens, A549, 72 h), 0.85 µM; in experiment [3] (Homo sapiens, T47D, 72 h), 0.11 µM; in experiment [4] (Homo sapiens, BT-549, 72 h), 0.22 µM; in experiment [5], 0.0065 µM.
With `COc1cc(-c2ccc3ncc(C(C)=O)c(N[C@H]4CC[C@H](N)CC4)c3c2)cc(Cl)c1O` [Example 259, 1-{4-[trans-4-Aminocyclohexylamino]-6-(3-chloro-4-hydroxy-5-methoxyphenyl)quinolin-3-yl}ethanone], the IC50 in experiment [1] (Homo sapiens, HT1197, 72 h) came to 2.5 µM; in experiment [2] (Homo sapiens, A549, 72 h), 0.099 µM; in experiment [3] (Homo sapiens, T47D, 72 h), 0.057 µM; in experiment [4] (Homo sapiens, BT-549, 72 h) it was 0.43 µM; in experiment [5] it was 0.0024 µM.
On the same counts, the results for `O=C(c1cnc2ccc(-c3cc(F)c(O)c(Cl)c3)cc2c1N1CCC(CN2CCCC2)CC1)C1CC1` [Example 283, {6-(3-Chloro-5-fluoro-4-hydroxyphenyl)-4-[4-(pyrrolidin-1-ylmethyl)piperidin-1-yl]quinolin-3-yl}(cyclopropyl)methanone] are 3 µM, 0.54 µM, 0.35 µM, 0.72 µM and 0.0029 µM.
With `CC(=O)c1cnc2ccc(-c3cc(Cl)c(O)c(Cl)c3)cc2c1N[C@H]1CC[C@H](N)CC1` [Example 256, 1-{4-[trans-4-Aminocyclohexylamino]-6-(3,5-dichloro-4-hydroxyphenyl)quinolin-3-yl}ethanone], the IC50 in experiment [1] (Homo sapiens, HT1197, 72 h) came to 100 µM; in experiment [2] (Homo sapiens, A549, 72 h), 0.44 µM; in experiment [3] (Homo sapiens, T47D, 72 h), 0.064 µM; in experiment [4] (Homo sapiens, BT-549, 72 h) it was 0.31 µM; in experiment [5], 0.0041 µM.
On the same counts, the results for `CN(C)[C@H]1CC[C@H](Nc2c(C(=O)C3CC3)cnc3ccc(-c4cc(Cl)c(O)c(Cl)c4)cc23)CC1` [Example 263, Cyclopropyl{6-(3,5-dichloro-4-hydroxyphenyl)-4-[trans-4-(dimethylamino)cyclohexylamino]quinolin-3-yl}methanone] are 1.2 µM, 0.2 µM, 0.13 µM, 0.41 µM and 0.0017 µM.
On the same counts, the results for `N[C@H]1CC[C@H](Nc2c(C(=O)C3CC3)cnc3ccc(-c4cc(Cl)c(O)cc4Cl)cc23)CC1` [Example 160, {4-[trans-4-Aminocyclohexylamino]-6-(2,5-dichloro-4-hydroxyphenyl)quinolin-3-yl}(cyclopropyl)methanone] are 1.2 µM, 0.68 µM, 0.28 µM, 0.39 µM and 0.072 µM.
Taken in the same sequence, the figures for `CN1CCN(C2CCN(c3c(C(=O)C4CC4)cnc4ccc(-c5cc(F)c(O)c(Cl)c5)cc34)CC2)CC1` [Example 349, {6-(3-Chloro-5-fluoro-4-hydroxyphenyl)-4-[4-(4-methylpiperazin-1-yl)piperidin-1-yl]quinolin-3-yl}(cyclopropyl)methanone] were 5.8 µM, 0.98 µM, 0.49 µM, 0.91 µM and 0.0046 µM.
For the molecule `COc1cc(-c2ccc3ncc(C(=O)CC(C)C)c(N[C@H]4CC[C@H](N(C)C)CC4)c3c2)cc(Cl)c1O` [Example 348, 1-{6-(3-Chloro-4-hydroxy-5-methoxyphenyl)-4-[trans-4-(dimethylamino)cyclohexylamino]quinolin-3-yl}-3-methylbutan-1-one], the 50% inhibitory concentration (IC50) was found to be 3 µM in experiment [1] (Homo sapiens, HT1197, 72 h); 0.47 µM in experiment [2] (Homo sapiens, A549, 72 h); 0.41 µM in experiment [3] (Homo sapiens, T47D, 72 h); 0.93 µM in experiment [4] (Homo sapiens, BT-549, 72 h); 0.0043 µM in experiment [5].
In the case of `N[C@H]1CC[C@H](Nc2c(C(=O)C3CC3)cnc3ccc(-c4cc(Cl)c(O)c(Cl)c4)cc23)CC1` [Example 157(b), {4-[trans-4-Aminocyclohexylamino]-6-(3,5-dichloro-4-hydroxyphenyl)quinolin-3-yl}(cyclopropyl)methanone dihydrochloride], the IC50 in experiment [1] (dihydrochloride) came to 4.7 µM; in experiment [2] (dihydrochloride), 0.3 µM; in experiment [3] (dihydrochloride) it was 0.096 µM; in experiment [4] (dihydrochloride), 0.31 µM; in experiment [5] (dihydrochloride) it was 0.003 µM.
As for `CC(C)C(=O)c1cnc2ccc(-c3cc(Cl)c(O)c(Cl)c3)cc2c1N[C@H]1CC[C@H](N)CC1` [Example 225(b), 1-{4-[trans-4-Aminocyclohexylamino]-6-(3,5-dichloro-4-hydroxyphenyl)quinolin-3-yl}-2-methylpropan-1-one dihydrochloride], the IC50 came out at 1.6 µM in experiment [1] (dihydrochloride); 0.22 µM in experiment [2] (dihydrochloride); 0.048 µM in experiment [3] (dihydrochloride); 0.17 µM in experiment [4] (dihydrochloride); 0.0028 µM in experiment [5] (dihydrochloride).
As to `COc1cc(-c2ccc3ncc(C(=O)C4CC4)c(N4CCC(CN5CCCC5)CC4)c3c2)cc(F)c1O` [Example 307, Cyclopropyl{6-(3-fluoro-4-hydroxy-5-methoxyphenyl)-4-[4-(pyrrolidin-1-ylmethyl)piperidin-1-yl]quinolin-3-yl}methanone], the IC50 in experiment [1] (Homo sapiens, HT1197, 72 h) is 3 µM; in experiment [2] (Homo sapiens, A549, 72 h), 0.53 µM; in experiment [3] (Homo sapiens, T47D, 72 h), 0.79 µM; in experiment [4] (Homo sapiens, BT-549, 72 h), 1.2 µM; in experiment [5], 0.0041 µM.
In the case of `COc1cc(-c2ccc3ncc(C(=O)C4CC4)c(N4CCC(CN(C)C)CC4)c3c2)cc(Cl)c1O` [Example 276, [6-(3-Chloro-4-hydroxy-5-methoxyphenyl)-4-{4-[(dimethylamino)methyl]piperidin-1-yl}quinolin-3-yl](cyclopropyl)methanone], the IC50 worked out at 1.8 µM in experiment [1] (Homo sapiens, HT1197, 72 h); 0.21 µM in experiment [2] (Homo sapiens, A549, 72 h); 0.16 µM in experiment [3] (Homo sapiens, T47D, 72 h); 0.58 µM in experiment [4] (Homo sapiens, BT-549, 72 h); 0.0008 µM in experiment [5].
As to `COc1cc(-c2ccc3ncc(C(=O)C4CC4)c(N4CCC(C(C)N(C)C)CC4)c3c2)ccc1O` (stereo not drawn) [Example 187, Cyclopropyl(4-{4-[1-(dimethylamino)ethyl]piperidin-1-yl}-6-(4-hydroxy-3-methoxyphenyl)quinolin-3-yl)methanone], the 50% inhibitory concentration (IC50) in experiment [1] (Homo sapiens, HT1197, 72 h) is 2.2 µM; in experiment [2] (Homo sapiens, A549, 72 h), 0.65 µM; in experiment [3] (Homo sapiens, T47D, 72 h), 0.44 µM; in experiment [4] (Homo sapiens, BT-549, 72 h), 2 µM; in experiment [5] it was 0.0034 µM.

In general, IC50 refers to the point on the concentration scale where inhibition reaches its midpoint.

These data come from patent US9120749B2, “Quinoline derivatives and MELK inhibitors containing the same” (ONCOTHERAPY SCIENCE, INC., priority 2010, dated 2015).
